Assay in all cases: [3H]IAA saturation radioligand binding
One assay concerns the target T1, ASK1·TIR1·IAA7 (Arabidopsis thaliana, UniProt Q38825+Q570C0).
T1 construct: full-length IAA7 as GST fusion from E. coli, GST kept; with SKP1-like protein 1A
T1 sequence (Q570C0 1-594): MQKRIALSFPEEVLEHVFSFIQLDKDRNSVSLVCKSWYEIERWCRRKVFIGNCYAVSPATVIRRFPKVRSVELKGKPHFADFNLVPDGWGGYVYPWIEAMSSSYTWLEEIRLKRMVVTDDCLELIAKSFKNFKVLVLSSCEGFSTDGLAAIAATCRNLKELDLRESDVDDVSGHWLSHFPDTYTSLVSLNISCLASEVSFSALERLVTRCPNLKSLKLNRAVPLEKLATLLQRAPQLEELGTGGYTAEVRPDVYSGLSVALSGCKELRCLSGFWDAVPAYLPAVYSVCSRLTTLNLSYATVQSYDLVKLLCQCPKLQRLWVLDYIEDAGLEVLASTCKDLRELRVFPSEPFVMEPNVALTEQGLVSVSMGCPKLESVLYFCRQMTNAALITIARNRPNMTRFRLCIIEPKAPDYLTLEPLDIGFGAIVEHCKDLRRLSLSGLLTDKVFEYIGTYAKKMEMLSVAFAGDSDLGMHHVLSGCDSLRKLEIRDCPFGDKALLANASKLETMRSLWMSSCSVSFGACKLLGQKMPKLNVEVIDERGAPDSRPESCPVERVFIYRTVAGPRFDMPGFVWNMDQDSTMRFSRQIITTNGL
T1 sequence (Q38825 1-243): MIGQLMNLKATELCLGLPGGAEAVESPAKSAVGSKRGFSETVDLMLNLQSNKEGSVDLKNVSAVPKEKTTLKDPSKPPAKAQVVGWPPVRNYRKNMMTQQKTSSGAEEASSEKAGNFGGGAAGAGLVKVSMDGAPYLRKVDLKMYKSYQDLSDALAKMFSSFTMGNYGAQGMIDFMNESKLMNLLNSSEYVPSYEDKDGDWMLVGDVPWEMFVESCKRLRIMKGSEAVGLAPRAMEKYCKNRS
T1 sequence (Q39255 1-160 partner): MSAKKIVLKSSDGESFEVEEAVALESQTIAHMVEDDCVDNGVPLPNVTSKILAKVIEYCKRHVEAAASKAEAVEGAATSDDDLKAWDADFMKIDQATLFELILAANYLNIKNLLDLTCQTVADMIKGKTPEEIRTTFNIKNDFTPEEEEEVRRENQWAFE

Another assay has as its target T2, TIR1·IAA (7-7-7-7-12).
T2 construct: IAA7 with its PB1 domain replaced by that of IAA12 (one seamless polypeptide: DI, linker, core degron, degron tail from IAA7); GST fusion from E. coli; with SKP1-like protein 1A
Also noted: species or system Arabidopsis thaliana. The conditions noted are these: labelled compound; 0.01 µM ASK1·TIR1, 0.3 µM GST-AUX/IAA chimera, on ice 1 h; one-site fit; n = 2.

Another assay deals with T3, TIR1·IAA (12-12-12-12-7).
T3 construct: IAA12 with its PB1 domain replaced by that of IAA7 (one seamless polypeptide: DI, linker, core degron, degron tail from IAA12); GST fusion from E. coli; with SKP1-like protein 1A
Also noted: species or system Arabidopsis thaliana. The conditions noted are these: labelled compound; 0.01 µM ASK1·TIR1, 0.3 µM GST-AUX/IAA chimera, on ice 1 h; one-site fit; n = 3.

A further assay has as its target T4, ASK1·TIR1·IAA12 (Arabidopsis thaliana, UniProt Q38830+Q570C0).
T4 construct: full-length IAA12 as GST fusion from E. coli, GST kept; with SKP1-like protein 1A
T4 sequence (Q570C0 1-594): T1 sequence (Q570C0 1-594)
T4 sequence (Q38830 1-239): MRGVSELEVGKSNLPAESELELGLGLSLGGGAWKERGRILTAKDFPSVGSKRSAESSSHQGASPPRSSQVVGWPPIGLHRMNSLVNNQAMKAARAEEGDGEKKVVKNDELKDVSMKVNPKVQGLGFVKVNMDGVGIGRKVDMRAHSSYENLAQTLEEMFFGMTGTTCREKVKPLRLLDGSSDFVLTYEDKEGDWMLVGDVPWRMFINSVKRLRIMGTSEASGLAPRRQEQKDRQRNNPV
T4 sequence (Q39255 1-160 partner): T1 sequence (Q39255 1-160 partner)

The next assay concerns the target T5, TIR1·IAA (7-7-7-12-7).
T5 construct: IAA7 with its degron tail replaced by that of IAA12 (one seamless polypeptide: DI, linker, core degron, PB1 from IAA7); GST fusion from E. coli; with SKP1-like protein 1A
Also noted: species or system Arabidopsis thaliana. The conditions noted are these: labelled compound; 0.01 µM ASK1·TIR1, 0.3 µM GST-AUX/IAA chimera, on ice 1 h; one-site fit; n = 2.

For a further assay, the target named is T6, TIR1·IAA (12-12-12-7-12).
T6 construct: IAA12 with its degron tail replaced by that of IAA7 (one seamless polypeptide: DI, linker, core degron, PB1 from IAA12); GST fusion from E. coli; with SKP1-like protein 1A
Also noted: species or system Arabidopsis thaliana. The settings on record: labelled compound; 0.01 µM ASK1·TIR1, 0.3 µM GST-AUX/IAA chimera, on ice 1 h; one-site fit; n = 3.

As for `O=C(O)Cc1c[nH]c2ccccc12` [[3H]IAA], the dissociation constant Kd at ASK1·TIR1·IAA7 was roughly 20 nM; on TIR1·IAA (7-7-7-7-12), roughly 43 nM; on TIR1·IAA (12-12-12-12-7), roughly 133 nM; at ASK1·TIR1·IAA12, roughly 226 nM; at TIR1·IAA (7-7-7-12-7) it was roughly 57 nM; on TIR1·IAA (12-12-12-7-12), roughly 79 nM.

Source of the values: PMC7210949, “Flexibility of intrinsically disordered degrons in AUX/IAA proteins reinforces auxin co-receptor assemblies” (Nature Communications, 2020).
